This is an account of results in patent US20140309276A1, “Pharmaceutical Composition Comprising a Mixture of Carboxylated Oligonucleotides” (priority 2013, published 2014).

One assay relates to HeLa-2 cells. The experiment in a line: Anticancer (cytopathic) activity in a culture of HeLa-2 cells, Minimum Active Dose. It counts as cell-based. The following applies: minimum amount causing degeneration of 90-95% of the cells; 199 medium; observed 5 days. The method, then: Anticancer activity of Composition in a cell culture was made in a culture of HeLa-2 cells. For this purpose, 2-12 mcg of Composition per ml of medium were added to the 199 medium. A culture without Composition in it was used as a control. Cultures were observed daily over the course of five days. The Minimum Active Dose (MAD) of Composition was also considered to be the minimum amount of the drug that caused a degeneration of 90-95% of the cells (Table 1.)
(Cytopathic effects are the visible damage that an infection or toxin causes in cultured cells.)

The subject of a further assay is benzidine skin sarcoma. The experiment in a line: Anticancer activity on benzidine skin sarcoma in mice. The format is in vivo, Barbados mice. The following applies: n = 10. From the text: Composition led to a 95% degeneration of tumor cells. To confirm the in vivo antitumor activity, Composition was studied in benzidine skin sarcoma and reinjected ascites adenocarcinomas in Barbados mice. In five mice with adenocarcinomas, the distribution of the Composition liposome throughout the animals' bodies was also studied using a fluorescent probe dissolved in a phospholipid layer.
A Study of the Anticancer Activity of Composition on Benzidine Sarcoma. Before applying it to the silica gel, 7 ml of a solution of 2% benzidine and 0.9% sodium chloride was added until an opalescent suspension was formed (1 g silica gel for 5 ml NaCl solution). Twenty-five Barbados mice of both sexes with a weight of 18-20 g that were kept on a vivarium diet were administered benzidine and phorbol acetate immobilized on silica gel subcutaneously near the neck. After two weeks, 18 animals had developed tumors of different sizes in the form of a small bump on the neck near the silica gel granulomas. Each group of animals was administered the corresponding compound parenterally at a dose of 100 mcg/kg weight twice a day for two weeks, beginning at 16 days after administration of the carcinogen.

Assay [1] has as its system Ehrlich's ascites adenocarcinoma. The experiment in a line: Antitumor activity on Ehrlich's ascites adenocarcinoma in mice. It counts as in vivo, Barbados mice. To be noted: n = 10. On the procedure: The antitumor activity of the compositions were studied in models of Ehrlich's ascites carcinoma in young Barbados mice of both sexes with weights between 15-17 g (68 individuals), which were kept on a vivarium diet.
45 mice were inoculated from a mouse with adenocarcinoma using an insulin syringe with 0.1 ml ascitic fluid in the region of the liver.
Ten mice were administered Composition in liposome form (see Table 5). Ten more mice were administered the Composition substance, and ten more were administered a 0.9% solution of sodium chloride with lipids.

For the compound `CC(=O)O[C@@]12CO[C@@H]1C[C@H](O)[C@@]1(C)C(=O)[C@H](O)C3=C(C)[C@@H](OC(=O)[C@H](O)[C@@H](NC(=O)OC(C)(C)C)c4ccccc4)C[C@@](O)([C@@H](OC(=O)c4ccccc4)[C@H]21)C3(C)C` [Taxotere], in the assay on HeLa-2 cells, the “MAD (Minimum Active Dose)” value was found to be 10 µg/mL. Further, in the assay with benzidine skin sarcoma, the “Animal Survival” value is 28 ± 1.1 days. In addition, the “Time of Death of Animals after the First Injection, Average Value, Experimental Animals” value in assay [1] (in liposomes (+)) came to 15 ± 0.5 days; in assay [1] (substance without liposomes (−)), 14 ± 0.12 days.
